Test results: PMC10819888, “Benzimidazole-Based Derivatives as Apoptotic Antiproliferative Agents: Design, Synthesis, Docking, and Mechanistic Studies” (Molecules, 2024)

Experiments:
Test in all cases: NCI-60 one-dose assay
Type in all cases: cell-based
[1] = tested on: UACC-257; details: Homo sapiens, UACC-257 (Melanoma), read-out: Cell Inhibition Percent
Method: (§1) The final compounds were submitted to the National Cancer Institute, Bethesda, USA, for screening in vitro for anti-cancer. […] compounds, 4a–j, 5, and 6, were selected according to the Development Therapeutic Program (DTP) protocol. The selected compounds were evaluated for their in vitro cytotoxic activity against a panel of sixty cancer cell lines (NCI-60 cell line panel) derived from six cell lines panel of leukemia, nine cell lines of lung cancer, six cell lines of CNS cancer, seven cell lines of colon cancer, eight cell lines of melanoma, six cell lines of ovarian cancer, eight cell lines of renal cancer, two cell lines of prostate cancer, and eight cell lines of breast cancer, representing the full nine human systems as leukemia, melanoma, and cancers of the lung, colon, brain, breast, ovary, kidney, and prostate.
(§2) The selected compounds 4a–j, 5, and 6 were tested at a single concentration of 10 µM. The screening results for the selected compounds are illustrated in Table 1.
(§3) The NCI anti-cancer screening methodology has been described in detail elsewhere (http://www.dtp.nci.nih.gov, accessed on 20 February 2021). Following the Drug Evaluation Branch protocol, National Cancer Institute, Bethesda, USA, a primary anti-cancer assay was performed on approximately 60 human tumor cell line panels derived from nine neoplastic diseases.

[2] = tested on: SF-295; details: Homo sapiens, SF-295 (CNS cancer), read-out: Cell Inhibition Percent
Method: as §1, §2, §3

[3] = tested on: MDA-MB-468; details: Homo sapiens, MDA-MB-468 (Breast Cancer), read-out: Cell Inhibition Percent
Method: as §1, §2, §3

[4] = tested on: OVCAR-3; details: Homo sapiens, OVCAR-3 (ovarian cancer), read-out: Cell Inhibition Percent
Method: as §1, §2, §3

[5] = tested on: UACC-62; details: Homo sapiens, UACC-62 (Melanoma), read-out: Cell Inhibition Percent
Method: as §1, §2, §3

[6] = tested on: UO-31; details: Homo sapiens, UO-31 (Renal Cancer), read-out: Cell Inhibition Percent
Method: as §1, §2, §3

[7] = tested on: K-562; details: Homo sapiens, K562, K-562 (Leukemia), read-out: Cell Inhibition Percent
Method: as §1, §2, §3

[8] = tested on: HOP-92; details: Homo sapiens, HOP-92 (Non-Small Cell Lung Cancer), read-out: Cell Inhibition Percent
Method: as §1, §2, §3

[9] = tested on: U251; details: Homo sapiens, U-251, U251 (CNS cancer), read-out: Cell Inhibition Percent
Method: as §1, §2, §3

[10] = tested on: HCT-116; details: Homo sapiens, HCT-116 (Colon Cancer), read-out: Cell Inhibition Percent
Method: as §1, §2, §3

[11] = tested on: NCI-H322M; details: Homo sapiens, NCI-H322M (Non-Small Cell Lung Cancer), read-out: Cell Inhibition Percent
Method: as §1, §2, §3

[12] = tested on: HCC-2998; details: Homo sapiens, HCC-2998 (Colon Cancer), read-out: Cell Inhibition Percent
Method: as §1, §2, §3

[13] = tested on: KM12; details: Homo sapiens, KM12 (Colon Cancer), read-out: Cell Inhibition Percent
Method: as §1, §2, §3

[14] = tested on: CCRF-CEM; details: Homo sapiens, CCRF-CEM (Leukemia), read-out: Cell Inhibition Percent
Method: as §1, §2, §3

[15] = tested on: OVCAR-8; details: Homo sapiens, OVCAR-8 (ovarian cancer), read-out: Cell Inhibition Percent
Method: as §1, §2, §3

[16] = tested on: RPMI-8226; details: Homo sapiens, RPMI-8226 (Leukemia), read-out: Cell Inhibition Percent
Method: as §1, §2, §3

[17] = tested on: MDA-MB-435; details: Homo sapiens, MDA-MB-435 (Melanoma), read-out: Cell Inhibition Percent
Method: as §1, §2, §3

[18] = tested on: SK-OV-3; details: Homo sapiens, SK-OV-3 (ovarian cancer), read-out: Cell Inhibition Percent
Method: as §1, §2, §3

[19] = tested on: SK-MEL-28; details: Homo sapiens, SK-MEL-28 (Melanoma), read-out: Cell Inhibition Percent
Method: as §1, §2, §3

[20] = tested on: CAKI-1; details: Homo sapiens, CAKI-1 (Renal Cancer), read-out: Cell Inhibition Percent
Method: as §1, §2, §3

[21] = tested on: 786-0; details: Homo sapiens, 786-0 (Renal Cancer), read-out: Cell Inhibition Percent
Method: as §1, §2, §3

[22] = tested on: SR; details: Homo sapiens, SR (Leukemia), read-out: Cell Inhibition Percent
Method: as §1, §2, §3

[23] = tested on: IGROV1; details: Homo sapiens, IGROV-1, IGROV1 (ovarian cancer), read-out: Cell Inhibition Percent
Method: as §1, §2, §3

[24] = tested on: SF-539; details: Homo sapiens, SF-539 (CNS cancer), read-out: Cell Inhibition Percent
Method: as §1, §2, §3

[25] = tested on: OVCAR-4; details: Homo sapiens, OVCAR-4 (ovarian cancer), read-out: Cell Inhibition Percent
Method: as §1, §2, §3

[26] = tested on: PC-3; details: Homo sapiens, PC-3 (Prostate Cancer), read-out: Cell Inhibition Percent
Method: as §1, §2, §3

[27] = tested on: OVCAR-5; details: Homo sapiens, OVCAR-5 (ovarian cancer), read-out: Cell Inhibition Percent
Method: as §1, §2, §3

[28] = tested on: COLO 205; details: Homo sapiens, COLO 205 (Colon Cancer), read-out: Cell Inhibition Percent
Method: as §1, §2, §3

[29] = tested on: RXF 393; details: Homo sapiens, RXF 393 (Renal Cancer), read-out: Cell Inhibition Percent
Method: as §1, §2, §3

[30] = tested on: SNB-75; details: Homo sapiens, SNB-75 (CNS cancer), read-out: Cell Inhibition Percent
Method: as §1, §2, §3

[31] = tested on: HCT-15; details: Homo sapiens, HCT-15 (Colon Cancer), read-out: Cell Inhibition Percent
Method: as §1, §2, §3

SMILES | inhibition at 10 µM [1] [%] | inhibition at 10 µM [2] [%] | inhibition at 10 µM [3] [%] | inhibition at 10 µM [4] [%] | inhibition at 10 µM [5] [%] | inhibition at 10 µM [6] [%] | inhibition at 10 µM [7] [%] | inhibition at 10 µM [8] [%] | inhibition at 10 µM [9] [%] | inhibition at 10 µM [10] [%] | inhibition at 10 µM [11] [%] | inhibition at 10 µM [12] [%] | inhibition at 10 µM [13] [%] | inhibition at 10 µM [14] [%] | inhibition at 10 µM [15] [%] | inhibition at 10 µM [16] [%] | inhibition at 10 µM [17] [%] | inhibition at 10 µM [18] [%] | inhibition at 10 µM [19] [%] | inhibition at 10 µM [20] [%] | further results
O=C(NN=Cc1ccc(Cl)cc1)c1ccc2[nH]c(-c3ccc(Cl)cc3)nc2c1 [Compound 4e, N′-(4-Chlorobenzylidene)-2-(4-chlorophenyl)-1H-benzimidazole-5-carbohydrazide] | 68.3 | 149 | 144 | 153 | 83.2 | 78.4 | 91.3 | 71.9 | 115 | 102 | 72.3 | 96.3 | 129 | 84.5 | 85.8 | 97.2 | 61.2 | 50.2 | 109 | 38.8 | inhibition at 10 µM [21]: 142%; inhibition at 10 µM [22]: 124%; inhibition at 10 µM [23]: 127%; inhibition at 10 µM [24]: 62.9%; inhibition at 10 µM [25]: 118%; inhibition at 10 µM [26]: 125%; inhibition at 10 µM [27]: 76.3%; inhibition at 10 µM [28]: 124%; inhibition at 10 µM [29]: 81.1%; inhibition at 10 µM [30]: 1.6%; inhibition at 10 µM [31]: 95.3%
O=C(NN=Cc1ccc(Cl)cc1Cl)c1ccc2[nH]c(-c3ccc(Cl)cc3)nc2c1 [Compound 4f, N′-(2,4-Dichlorobenzylidene)-2-(4-chlorophenyl)-1H-benzimidazole-5-carbohydrazide] | 6.59 | 1.19 | 0 | 0 | 0 | 27.8 | 53.7 | 0 | 41 | 8.63 | 0 | 3.25 | 1.75 | 48.1 | 17.1 | 15.4 | 0 | 7.23 | 0 | 9.61 | inhibition at 10 µM [21]: 0%; inhibition at 10 µM [22]: 54.6%; inhibition at 10 µM [23]: 31%; inhibition at 10 µM [24]: 5.73%; inhibition at 10 µM [25]: 0%; inhibition at 10 µM [26]: 7.03%; inhibition at 10 µM [27]: 0%; inhibition at 10 µM [28]: 0%; inhibition at 10 µM [29]: 12.5%; inhibition at 10 µM [30]: 12.4%; inhibition at 10 µM [31]: 0%
